The text below walks through data of patent US12202835B2, “Substituted aromatic ring-linked dioxinoquinazolines and dioxinoquinolines as kinase inhibitors” (BEIJING SCITECH-MQ PHARMACEUTICALS LIMITED, priority 2018, dated 2025).

One assay has as its target MER kinase (Homo sapiens (Human), UniProt Q12866). The assay is described as follows: Assay of small molecular compounds for inhibiting the activity of MER kinase (LANCE TR-FRET). The format is biochemical. An outline of the steps:
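MER kinase preincubated 5 min at RT with compound (11 points, 0.042-2500 nM final), then ULight-poly GT and ATP added (4× stocks 200 nM and 20 μM) for 60 min at RT, 1% DMSO. Phosphorylation detected by LANCE TR-FRET; IC50 from % inhibition versus controls.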

The target in a further assay is VEGFR-2 kinase (Homo sapiens (Human), UniProt P35968). Briefly: Assay of small molecular compounds for inhibiting the activity of VEGFR-2 kinase (LANCE TR-FRET). Type of assay: biochemical. The following applies: read-out: VEGFR2 IC50. An outline of the steps:
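LANCE TR-FRET with human VEGFR-2 (2× stock 0.5 nM) preincubated 30 min with compound (final 2500 to 0.042 nM, 11-point 3-fold), then ULight-JAK-1 (Tyr1023) peptide/ATP added (4× stocks 200 nM/40 μM). Reaction 60 min room temperature, 4% DMSO; IC50 from inhibition-rate curve.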
(In general: TR-FRET usually uses a lanthanide donor and a delayed reading to cut background.)

The subject of another assay is MHCC97H cells. The assay is described as follows: Assay for inhibiting the proliferation of MHCC97H cells (CCK-8). Type of assay: cell-based. The settings on record: Homo sapiens. Summed up: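 Cells seeded in 96-well plates overnight, then exposed 72 h to 9 three-fold dilutions of compound (0.25% DMSO final). Viability by CCK-8 (1-2 h at 37° C., OD 450 nm), survival normalized to untreated and cell-free blanks; IC50 by curve fitting.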

VEGFR-2 kinase, sequence (P35968 20-1356): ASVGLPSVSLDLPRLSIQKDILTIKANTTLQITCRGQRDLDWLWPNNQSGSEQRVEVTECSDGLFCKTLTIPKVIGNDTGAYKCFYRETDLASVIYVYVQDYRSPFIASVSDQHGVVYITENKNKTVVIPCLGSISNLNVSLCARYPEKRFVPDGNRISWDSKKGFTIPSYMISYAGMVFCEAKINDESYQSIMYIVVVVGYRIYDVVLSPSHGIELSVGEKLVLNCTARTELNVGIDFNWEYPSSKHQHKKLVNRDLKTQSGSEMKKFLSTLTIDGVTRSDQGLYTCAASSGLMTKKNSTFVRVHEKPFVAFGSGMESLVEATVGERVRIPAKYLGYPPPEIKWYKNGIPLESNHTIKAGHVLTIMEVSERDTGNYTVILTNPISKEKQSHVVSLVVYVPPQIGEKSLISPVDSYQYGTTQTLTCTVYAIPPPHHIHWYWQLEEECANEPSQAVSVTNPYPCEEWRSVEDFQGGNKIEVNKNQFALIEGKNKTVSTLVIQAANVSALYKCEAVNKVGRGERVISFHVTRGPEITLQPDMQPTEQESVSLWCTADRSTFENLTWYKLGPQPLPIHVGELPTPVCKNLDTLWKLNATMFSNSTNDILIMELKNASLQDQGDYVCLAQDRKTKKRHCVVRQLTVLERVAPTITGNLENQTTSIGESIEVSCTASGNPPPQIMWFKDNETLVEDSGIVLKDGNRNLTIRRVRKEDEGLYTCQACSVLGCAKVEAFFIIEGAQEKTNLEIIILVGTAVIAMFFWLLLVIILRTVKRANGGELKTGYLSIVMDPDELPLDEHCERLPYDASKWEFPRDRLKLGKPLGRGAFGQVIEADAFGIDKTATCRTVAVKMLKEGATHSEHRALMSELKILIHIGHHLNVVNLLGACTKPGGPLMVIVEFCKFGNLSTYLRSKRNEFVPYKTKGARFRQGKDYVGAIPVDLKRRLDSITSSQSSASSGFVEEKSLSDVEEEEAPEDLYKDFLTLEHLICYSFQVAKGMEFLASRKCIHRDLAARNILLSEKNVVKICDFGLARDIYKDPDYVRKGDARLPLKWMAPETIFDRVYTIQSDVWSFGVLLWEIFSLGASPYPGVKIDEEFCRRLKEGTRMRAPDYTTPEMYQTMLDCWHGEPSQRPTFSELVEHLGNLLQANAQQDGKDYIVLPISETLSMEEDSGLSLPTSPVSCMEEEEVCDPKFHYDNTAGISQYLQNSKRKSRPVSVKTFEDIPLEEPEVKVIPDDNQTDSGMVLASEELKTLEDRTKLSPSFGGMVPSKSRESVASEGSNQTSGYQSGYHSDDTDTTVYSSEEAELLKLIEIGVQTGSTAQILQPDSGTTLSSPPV
MER kinase, sequence (Q12866 21-999): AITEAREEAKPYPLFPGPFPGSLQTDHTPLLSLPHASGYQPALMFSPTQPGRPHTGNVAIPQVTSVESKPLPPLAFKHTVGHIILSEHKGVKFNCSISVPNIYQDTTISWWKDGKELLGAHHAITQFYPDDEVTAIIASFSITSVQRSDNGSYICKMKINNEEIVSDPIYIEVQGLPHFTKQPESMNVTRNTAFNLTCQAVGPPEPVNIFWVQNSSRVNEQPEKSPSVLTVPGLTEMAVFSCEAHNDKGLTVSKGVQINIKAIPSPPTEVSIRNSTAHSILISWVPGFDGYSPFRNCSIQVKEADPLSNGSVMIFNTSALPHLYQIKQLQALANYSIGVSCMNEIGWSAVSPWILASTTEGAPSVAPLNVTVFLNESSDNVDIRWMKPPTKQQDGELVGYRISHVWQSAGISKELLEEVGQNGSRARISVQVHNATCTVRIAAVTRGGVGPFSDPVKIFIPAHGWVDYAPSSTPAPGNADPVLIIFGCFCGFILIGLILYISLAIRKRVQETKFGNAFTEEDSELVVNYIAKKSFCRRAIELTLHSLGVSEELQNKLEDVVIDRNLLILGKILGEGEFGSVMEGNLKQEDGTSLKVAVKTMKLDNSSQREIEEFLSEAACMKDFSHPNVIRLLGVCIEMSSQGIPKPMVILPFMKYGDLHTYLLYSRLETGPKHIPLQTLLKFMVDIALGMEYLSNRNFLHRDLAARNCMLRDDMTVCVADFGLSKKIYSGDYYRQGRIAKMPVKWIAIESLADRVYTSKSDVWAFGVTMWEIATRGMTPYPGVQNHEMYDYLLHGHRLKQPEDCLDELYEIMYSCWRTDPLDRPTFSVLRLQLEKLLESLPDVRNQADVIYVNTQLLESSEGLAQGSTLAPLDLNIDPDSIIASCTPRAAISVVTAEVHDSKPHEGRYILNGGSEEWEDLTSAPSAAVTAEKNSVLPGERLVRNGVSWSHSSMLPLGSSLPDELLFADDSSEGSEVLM

Turning to `CC(C)n1cc(C(=O)Nc2ccc(Oc3ccnc4cc(OCCCN5CCC(C)(C)CC5)c5c(c34)OCCO5)c(F)c2)c(=O)n(-c2ccc(F)cc2)c1=O` [Example 92, N-(3-fluoro-4-((5-(3-(4,4-dimethylpiperidin-1-yl)propoxy)-2,3-dihydro-[1,4]dioxino[2,3-f]quinolin-10-yl)oxy)phenyl)-3-(4-fluorophenyl)-1-isopropyl-2,4-dioxo-1,2,3,4-tetrahydropyrimidine-5-carboxamide], the IC50 (commonly the concentration needed to halve the response being measured) was at most 50 nM at MER kinase and 500 to 5000 nM on VEGFR-2 kinase.

Turning to `CCOc1ccn(-c2ccc(F)cc2)c(=O)c1C(=O)Nc1ccc(Oc2ccnc3cc(OCCCN(C)CCOC)c4c(c23)OCCO4)c(F)c1` [Example 70, N-(4-((5-(3-((2-methoxyethyl)(methyl)amino)propoxy)-2,3-dihydro-[1,4]dioxino[2,3-f]quinolin-10-yl)oxy)-3-fluorophenyl)-4-ethoxy-1-(4-fluorophenyl)-2-oxo-1,2-dihydropyridine-3-carboxamide], the IC50 against MER kinase, in the assay on MHCC97H cells and at VEGFR-2 kinase was at most 50 nM in each case.

As for `CC(C)n1cc(C(=O)Nc2ccc(Oc3ccnc4cc(OCCO)c5c(c34)OCCO5)c(F)c2)c(=O)n(-c2ccc(F)cc2)c1=O` [Example 78, N-(3-fluoro-4-((5-(2-hydroxyethoxy)-2,3-dihydro-[1,4]dioxino[2,3-f]quinolin-10-yl)oxy)phenyl)-3-(4-fluorophenyl)-1-isopropyl-2,4-dioxo-1,2,3,4-tetrahydropyrimidine-5-carboxamide], the IC50 on MER kinase is at most 50 nM; on VEGFR-2 kinase, 500 to 5000 nM.

On to `CC(C)Oc1cc2nccc(Oc3ccc(NC(=O)c4cn(C)c(=O)n(-c5ccc(F)cc5)c4=O)cc3F)c2c2c1OCCO2` [Example 88, N-(3-fluoro-4-((5-isopropoxy-2,3-dihydro-[1,4]dioxino[2,3-f]quinolin-10-yl)oxy)phenyl)-3-(4-fluorophenyl)-1-methyl-2,4-dioxo-1,2,3,4-tetrahydropyrimidine-5-carboxamide], for which the IC50 at MER kinase is at most 50 nM; at VEGFR-2 kinase, 500 to 5000 nM.

As to `CCOc1ccn(-c2ccc(F)cc2)c(=O)c1C(=O)Nc1ccc(Oc2ccnc3cc(OCCO)c4c(c23)OCCO4)c(F)c1` [Example 53, N-(4-((5-(2-hydroxyethoxy)-2,3-dihydro-[1,4]dioxino[2,3-f]quinolin-10-yl)oxy)-3-fluorophenyl)-4-ethoxy-1-(4-fluorophenyl)-2-oxo-1,2-dihydropyridine-3-carboxamide], the IC50 against MER kinase, in the assay on MHCC97H cells and at VEGFR-2 kinase was at most 50 nM throughout.

Take `CCOc1ccn(-c2ccc(F)cc2)c(=O)c1C(=O)Nc1ccc(Oc2ccnc3cc(OCCCN4CCC(C)(C)CC4)c4c(c23)OCCO4)c(F)c1` [Example 67, N-(4-((5-(3-(4,4-dimethylpiperidin-1-yl)propoxy)-2,3-dihydro-[1,4]dioxino[2,3-f]quinolin-10-yl)oxy)-3-fluorophenyl)-4-ethoxy-1-(4-fluorophenyl)-2-oxo-1,2-dihydropyridine-3-carboxamide]: the IC50 at MER kinase, in the assay with MHCC97H cells and at VEGFR-2 kinase was at most 50 nM throughout.

As to `CCOc1ccn(-c2ccc(F)cc2)c(=O)c1C(=O)Nc1ccc(Oc2ccnc3cc(OCCCN4CCC(C)(N)CC4)c4c(c23)OCCO4)c(F)c1` [Example 68, N-(4-((5-(3-(4-amino-4-methylpiperidin-1-yl)propoxy)-2,3-dihydro-[1,4]dioxino[2,3-f]quinolin-10-yl)oxy)-3-fluorophenyl)-4-ethoxy-1-(4-fluorophenyl)-2-oxo-1,2-dihydropyridine-3-carboxamide], the results for the IC50 at MER kinase, with MHCC97H cells and at VEGFR-2 kinase were at most 50 nM, 200 to 1000 nM and at most 50 nM, respectively.

On to `CCOc1ccn(-c2ccc(F)cc2)c(=O)c1C(=O)Nc1ccc(Oc2ccnc3cc(OC(C)C)c4c(c23)OCCO4)c(F)c1` [Example 63, N-(4-((5-isopropoxy-2,3-dihydro-[1,4]dioxino[2,3-f]quinolin-10-yl)oxy)-3-fluorophenyl)-4-ethoxy-1-(4-fluorophenyl)-2-oxo-1,2-dihydropyridine-3-carboxamide], for which the IC50 on MER kinase was at most 50 nM; with MHCC97H cells, 50 to 200 nM; on VEGFR-2 kinase, 50 to 500 nM.

Regarding `CCOc1ccn(-c2ccc(F)cc2)c(=O)c1C(=O)Nc1ccc(Oc2ccnc3cc(OCC(C)C)c4c(c23)OCCO4)c(F)c1` [Example 58, N-(4-((5-(isobutyloxy)-2,3-dihydro-[1,4]dioxino[2,3-f]quinolin-10-yl)oxy)-3-fluorophenyl)-4-ethoxy-1-(4-fluorophenyl)-2-oxo-1,2-dihydropyridine-3-carboxamide], the IC50 against MER kinase and on VEGFR-2 kinase was at most 50 nM throughout.

Take `Cn1cc(C(=O)Nc2ccc(Oc3ccnc4cc(OC5CCOCC5)c5c(c34)OCCO5)c(F)c2)c(=O)n(-c2ccc(F)cc2)c1=O` [Example 91, N-(3-fluoro-4-((5-((tetrahydropyran-4-yl)oxy)-2,3-dihydro-[1,4]dioxino[2,3-f]quinolin-10-yl)oxy)phenyl)-3-(4-fluorophenyl)-1-methyl-2,4-dioxo-1,2,3,4-tetrahydropyrimidine-5-carboxamide]: the IC50 on MER kinase is at most 50 nM; on VEGFR-2 kinase, 50 to 500 nM.

On MER kinase, `CC(C)n1cc(C(=O)Nc2ccc(Oc3ccnc4cc(OCCCO)c5c(c34)OCCO5)c(F)c2)c(=O)n(-c2ccc(F)cc2)c1=O` [Example 79, N-(3-fluoro-4-((5-(3-hydroxypropoxy)-2,3-dihydro-[1,4]dioxino[2,3-f]quinolin-10-yl)oxy)phenyl)-3-(4-fluorophenyl)-1-isopropyl-2,4-dioxo-1,2,3,4-tetrahydropyrimidine-5-carboxamide] had an IC50 of at most 50 nM.

With `Cn1cc(C(=O)Nc2ccc(Oc3ccnc4cc(OC5CCOC5)c5c(c34)OCCO5)c(F)c2)c(=O)n(-c2ccc(F)cc2)c1=O` (centres unmarked) [Example 90, N-(3-fluoro-4-((5-((tetrahydrofuran-3-yl)oxy)-2,3-dihydro-[1,4]dioxino[2,3-f]quinolin-10-yl)oxy)phenyl)-3-(4-fluorophenyl)-1-methyl-2,4-dioxo-1,2,3,4-tetrahydropyrimidine-5-carboxamide], the results for the IC50 against MER kinase and on VEGFR-2 kinase were at most 50 nM and 50 to 500 nM, respectively.

On to `COCCOc1cc2nccc(Oc3ccc(NC(=O)c4cn(C(C)C)c(=O)n(-c5ccc(F)cc5)c4=O)cc3F)c2c2c1OCCO2` [Example 43, N-(3-fluoro-4-((5-(2-methoxyethoxy)-2,3-dihydro-[1,4]dioxino[2,3-f]quinolin-10-yl)oxy)phenyl)-3-(4-fluorophenyl)-1-isopropyl-2,4-dioxo-1,2,3,4-tetrahydropyrimidine-5-carboxamide], for which, at MER kinase, the IC50 is at most 50 nM.

For `CC(C)n1cc(C(=O)Nc2ccc(Oc3ccnc4cc(OCCCN5CCS(=O)(=O)CC5)c5c(c34)OCCO5)c(F)c2)c(=O)n(-c2ccc(F)cc2)c1=O` [Example 76, N-(3-fluoro-4-((5-(3-(1,1-dioxidothiomorpholino)propoxy)-2,3-dihydro-[1,4]dioxino[2,3-f]quinolin-10-yl)oxy)phenyl)-3-(4-fluorophenyl)-1-isopropyl-2,4-dioxo-1,2,3,4-tetrahydropyrimidine-5-carboxamide], the IC50 was at most 50 nM against MER kinase and 500 to 5000 nM on VEGFR-2 kinase.

For `CC(C)n1cc(C(=O)Nc2ccc(Oc3ccnc4cc(OCCCN5CCC(C)(N)CC5)c5c(c34)OCCO5)c(F)c2)c(=O)n(-c2ccc(F)cc2)c1=O` [Example 93, N-(3-fluoro-4-((5-(3-(4-amino-4-methylpiperidin-1-yl)propoxy)-2,3-dihydro-[1,4]dioxino[2,3-f]quinolin-10-yl)oxy)phenyl)-3-(4-fluorophenyl)-1-isopropyl-2,4-dioxo-1,2,3,4-tetrahydropyrimidine-5-carboxamide], the IC50 on MER kinase is at most 50 nM; at VEGFR-2 kinase it was 50 to 500 nM.

Take `CCOc1ccn(-c2ccc(F)cc2)c(=O)c1C(=O)Nc1ccc(Oc2ccnc3cc(OCC4CC4)c4c(c23)OCCO4)c(F)c1` [Example 59, N-(4-((5-(cyclopropylmethoxy)-2,3-dihydro-[1,4]dioxino[2,3-f]quinolin-10-yl)oxy)-3-fluorophenyl)-4-ethoxy-1-(4-fluorophenyl)-2-oxo-1,2-dihydropyridine-3-carboxamide]: the IC50 on MER kinase and at VEGFR-2 kinase was at most 50 nM each time.

`CC(=O)N1CCN(CCCOc2cc3nccc(Oc4ccc(NC(=O)c5cn(C(C)C)c(=O)n(-c6ccc(F)cc6)c5=O)cc4F)c3c3c2OCCO3)CC1` [Example 75, N-(3-fluoro-4-((5-(3-(4-acetylpiperazin-1-yl)propoxy)-2,3-dihydro-[1,4]dioxino[2,3-f]quinolin-10-yl)oxy)phenyl)-3-(4-fluorophenyl)-1-isopropyl-2,4-dioxo-1,2,3,4-tetrahydropyrimidine-5-carboxamide] came in with an IC50 at MER kinase of at most 50 nM.

With `CC(C)n1cc(C(=O)Nc2ccc(Oc3ccnc4cc(OCCCN5CCCC5)c5c(c34)OCCO5)c(F)c2)c(=O)n(-c2ccc(F)cc2)c1=O` [Example 77, N-(3-fluoro-4-((5-(3-(pyrrolidin-1-yl)propoxy)-2,3-dihydro-[1,4]dioxino[2,3-f]quinolin-10-yl)oxy)phenyl)-3-(4-fluorophenyl)-1-isopropyl-2,4-dioxo-1,2,3,4-tetrahydropyrimidine-5-carboxamide], the IC50 was at most 50 nM against MER kinase and 50 to 500 nM on VEGFR-2 kinase.
